Reference: patent US11945794B2, “Nuclear transport modulators and uses thereof” (Karyopharm Therapeutics Inc., priority 2013, dated 2024)

Experiments:
Assay type in all cases: cell-based
[1] = system: MM1S cells; assay: MTT cell proliferation assay; conditions: Homo sapiens, MM1.S, approximately 64-72 hours
Procedure: (§1) The MTT cell proliferation assay was used to study the cytotoxic properties of the compounds. The assay was performed according to the method described by Roche Molecular Biochemicals, with minor modifications. The assay is based on the cleavage of the tetrazolium salt, MTT, in the presence of an electron-coupling reagent. The water-insoluble formazan salt produced must be solubilized in an additional step. Cells grown in a 96-well tissue culture plate were incubated with the MTT solution for approximately 4 hours. After this incubation period, a water-insoluble formazan dye formed. After solubilization, the formazan dye was quantitated using a scanning multi-well spectrophotometer (ELISA reader). […] The cells were seeded at 5,000-10,000 cells in each well of 96-well plate in 100 μL of fresh culture medium and were allowed to attach overnight. The stock solutions of the compounds were diluted in 100 μL cell culture medium to obtain eight concentrations of each test compound, ranging from 1 nM to 30 μM. […] All optical densities were measured at 490 nm using a Vmax Kinetic Microplate Reader (Molecular Devices). In most cases, the assay was performed in duplicate and the results were presented as a mean percent inhibition to the negative control±SE. The following formula was used to calculate the percent of inhibition: Inhibition (%)=(1−(ODo/OD))×100.
(§2) The compounds were tested against Z138, MM1S and 3T3 cells. The Z138 cell line is a mature B-cell acute lymphoblastic leukemia cell line derived from a patient with chronic lumphocytic leukemia. The MM1S cell line was established from the peripheral blood of a human multiple myeloma patient. 3T3 cells are standard fibroblast cells; they were originally isolated from Swiss mouse embryo tissue.

[2] = system: 3T3 cells; assay: MTT cell proliferation assay; conditions: Mus musculus, NIH3T3, approximately 64-72 hours
Procedure: as §1, §2

[3] = system: Z138 cells; assay: MTT cell proliferation assay; conditions: Homo sapiens, Z-138, approximately 64-72 hours
Procedure: as §1, §2

[4] = molecular target: T1, CRM1 (Homo sapiens, UniProt O14980); assay: Inhibition of nuclear export, RevGFP assay in U2OS-RevGFP cells; conditions: approximately 1 hour incubation
T1 construct: endogenous in cells; host or cells: U2OS cells stably expressing Rev-GFP
T1 sequence (O14980 whole entry): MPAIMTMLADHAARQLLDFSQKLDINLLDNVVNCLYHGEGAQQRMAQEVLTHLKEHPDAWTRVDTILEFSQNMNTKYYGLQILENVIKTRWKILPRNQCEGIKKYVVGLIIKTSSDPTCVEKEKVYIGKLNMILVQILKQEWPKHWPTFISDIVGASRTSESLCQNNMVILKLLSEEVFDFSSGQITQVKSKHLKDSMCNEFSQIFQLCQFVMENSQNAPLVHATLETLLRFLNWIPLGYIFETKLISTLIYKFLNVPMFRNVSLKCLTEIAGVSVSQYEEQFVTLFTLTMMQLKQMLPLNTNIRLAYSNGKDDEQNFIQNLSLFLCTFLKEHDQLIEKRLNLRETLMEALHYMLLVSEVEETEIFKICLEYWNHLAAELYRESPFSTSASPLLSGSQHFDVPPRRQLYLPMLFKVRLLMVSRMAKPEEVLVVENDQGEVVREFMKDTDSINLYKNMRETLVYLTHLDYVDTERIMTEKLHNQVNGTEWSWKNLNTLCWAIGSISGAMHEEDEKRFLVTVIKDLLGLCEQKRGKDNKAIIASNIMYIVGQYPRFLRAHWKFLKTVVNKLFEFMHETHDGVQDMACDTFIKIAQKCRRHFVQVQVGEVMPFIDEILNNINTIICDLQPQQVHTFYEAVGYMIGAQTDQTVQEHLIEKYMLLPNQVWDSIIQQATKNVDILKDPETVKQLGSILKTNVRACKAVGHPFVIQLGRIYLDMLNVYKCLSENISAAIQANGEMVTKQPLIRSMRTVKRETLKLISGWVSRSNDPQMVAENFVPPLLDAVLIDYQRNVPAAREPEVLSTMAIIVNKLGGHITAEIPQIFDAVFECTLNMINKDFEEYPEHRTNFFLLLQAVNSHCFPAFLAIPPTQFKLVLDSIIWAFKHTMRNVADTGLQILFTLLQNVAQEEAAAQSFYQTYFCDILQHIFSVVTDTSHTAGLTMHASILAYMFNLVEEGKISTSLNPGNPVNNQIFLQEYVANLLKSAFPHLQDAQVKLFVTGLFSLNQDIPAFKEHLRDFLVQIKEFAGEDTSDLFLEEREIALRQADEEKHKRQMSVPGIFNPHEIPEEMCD
Procedure: The inhibition of CRM1 mediated nuclear export by compounds of the invention was determined in a RevGFP assay. Rev is a protein from human immunodeficiency virus type 1 (HIV-1) and contains a nuclear export signal (NES) in its C-terminal domain and a nuclear localization signal (NLS) in its N-terminal domain. Nuclear export of Rev protein is dependent on the classical NES/CRM1 pathway (Neville et al, 1997, Kau et al, 2003).
In this assay, U2OS-RevGFP cells were seeded onto clear-bottom, black, 384-well plates the day before the experiment. Compounds were serially diluted 1:2 starting from 40 μM in a separate 384-well plate in DMEM, and then transferred onto cells. Cells were incubated with compound for approximately 1 hour before fixation with 3.7% formaldehyde and nuclei staining with Hoechst 33258. The amount of GFP in cell nuclei was measured and compound IC50s were determined (Kau et al, 2003).

Row | SMILES | IC50 [1] [µM] | IC50 [4] [µM] | IC50 [2] [µM] | IC50 [3] [µM]
1 | N#CC(=Cn1cnc(-c2cc(C(F)(F)F)cc(C(F)(F)F)c2)n1)c1ccccn1 [Compound 100, 3-(3-(3,5-bis(trifluoromethyl)phenyl)-1H-1,2,4-triazol-1-yl)-2-(pyridin-2-yl)acrylonitrile] | > 30 | > 30 | > 30 | > 30
2 | CC(C)OC(=O)/C(=C/n1cnc(-c2cc(C(F)(F)F)cc(C(F)(F)F)c2)n1)c1cccnc1 [Compound 101, (E)-isopropyl 3-(3-(3,5-bis(trifluoromethyl)phenyl)-1H-1,2,4-triazol-1-yl)-2-(pyridin-3-yl)acrylate] | < 0.1 | 5 to 30 | 5 to 30 | 0.1 to 5
3 | CN(C)C(=O)/C(=C/n1cnc(-c2cc(C(F)(F)F)cc(C(F)(F)F)c2)n1)c1ccncc1 [Compound 113, (E)-3-(3-(3,5-bis(trifluoromethyl)phenyl)-1H-1,2,4-triazol-1-yl)-N,N-dimethyl-2-(pyridin-4-yl)acrylamide] | 0.1 to 5 | 5 to 30 | – | –
4 | CC(C)OC(=O)/C(=C/n1cnc(-c2cc(C(F)(F)F)cc(C(F)(F)F)c2)n1)c1cncnc1 [Compound 115, isopropyl (E)-3-(3-(3,5-bis(trifluoromethyl)phenyl)-1H-1,2,4-triazol-1-yl)-2-(pyrimidin-5-yl)acrylate] | 0.1 to 5 | 0.1 to 5 | – | –
5 | Cc1noc(C)c1/C(=C\n1cnc(-c2cc(C(F)(F)F)cc(C(F)(F)F)c2)n1)C(=O)OC(C)C [Compound 116, isopropyl (E)-3-(3-(3,5-bis (trifluoromethyl)phenyl)-1H-1,2,4-triazol-1-yl)-2-(3,5-dimethylisoxazol-4-yl) acrylate] | 0.1 to 5 | 0.1 to 5 | – | –
6 | CC(C)OC(=O)/C(=C/n1cnc(-c2cc(C(F)(F)F)cc(C(F)(F)F)c2)n1)c1cnn(C)c1 [Compound 130, isopropyl (E)-3-(3-(3,5-bis(trifluoromethyl)phenyl)-1H-1,2,4-triazol-1-yl)-2-(1-methyl-1H-pyrazol-4-yl)acrylate] | < 0.1 | 0.1 to 5 | – | –

The next lines start with results.

Row | IC50 [1] [µM] | IC50 [4] [µM] | SMILES | IC50 [2] [µM] | IC50 [3] [µM]
7 | 0.1 to 5 | 0.1 to 5 | N#C/C(=C/n1cnc(-c2cc(C(F)(F)F)cc(C(F)(F)F)c2)n1)c1cccnc1 [Compound 102, (E)-3-(3-(3,5-bis(trifluoromethyl)phenyl)-1H-1,2,4-triazol-1-yl)-2-(pyridin-3-yl)acrylonitrile] | 5 to 30 | 0.1 to 5
8 | < 0.1 | 0.1 to 5 | NC(=O)/C(=C/n1cnc(-c2cc(C(F)(F)F)cc(C(F)(F)F)c2)n1)c1cccnc1 [Compound 104, (E)-3-(3-(3,5-bis(trifluoromethyl)phenyl)-1H-1,2,4-triazol-1-yl)-2-(pyridin-3-yl)acrylamide] | 0.1 to 5 | < 0.1
9 | 0.1 to 5 | 0.1 to 5 | N#C/C(=C/n1cnc(-c2cc(C(F)(F)F)cc(C(F)(F)F)c2)n1)c1ccncc1 [Compound 105, (E)-3-(3-(3,5-bis(trifluoromethyl)phenyl)-1H-1,2,4-triazol-1-yl)-2-(pyridin-4-yl)acrylonitrile] | > 30 | –
10 | < 0.1 | < 0.1 | NC(=O)/C(=C/n1cnc(-c2cc(C(F)(F)F)cc(C(F)(F)F)c2)n1)c1nccs1 [Compound 111, (Z)-3-(3-(3,5-bis(trifluoromethyl)phenyl)-1H-1,2,4-triazol-1-yl)-2-(thiazol-2-yl)acrylamide] | > 30 | –
11 | < 0.1 | 0.1 to 5 | Cn1cc(/C(=C\n2cnc(-c3cc(C(F)(F)F)cc(C(F)(F)F)c3)n2)C(N)=O)cn1 [Compound 114, (E)-3-(3-(3,5-bis(trifluoromethyl)phenyl)-1H-1,2,4-triazol-1-yl)-2-(1-methyl-1H-pyrazol-4-yl)acrylamide] | – | –
12 | – | < 0.1 | NC(=O)/C(=C/n1cnc(-c2cc(C(F)(F)F)cc(C(F)(F)F)c2)n1)c1cncc(F)c1 [Compound 132, (E)-3-(3-(3,5-bis(trifluoromethyl)phenyl)-1H-1,2,4-triazol-1-yl)-2-(5-fluoropyridin-3-yl)acrylamide] | – | –
